From US10376520B2, “Methods for the treatment of cardiovascular disorders” (Galapagos NV, priority 2015, dated 2019)

Test system: RA patients
Assay: LDL determination, Study 2 (RA patients, monotherapy)
Assay type: in vivo, human
Description: Randomized, double-blind, placebo-controlled, multicenter, phase IIb dose finding study of Compound 1 (dosed as a [Compound 1:HCl:3H2O]) administered for 24 weeks as monotherapy to subjects with moderately to severely active rheumatoid arthritis who have an inadequate response to methotrexate alone
Double-blind, placebo-controlled, monotherapy study in subjects with moderately to severely active RA who have an inadequate response to methotrexate (MTX) (oral or parenteral).
280 subjects randomized to one of 3 doses of Compound 1 (dosed as a [Compound 1:HCl:3H2O]) or to placebo, given once daily (q.d.).
Twelve weeks of treatment with Compound 1 (dosed as a [Compound 1:HCl:3H2O]) at 50 mg, 100 mg, or 200 mg q.d.; or placebo. At Week 12, all subjects on placebo and the subjects on the 50 mg dose who have not achieved 20% improvement in swollen joint count (SJC66) and tender joint count (TJC68) will be assigned to 100 mg q.d. in a blinded fashion and will continue treatment until Week 24. Subjects in the other groups will maintain their randomized treatment until Week 24.
The determination of [LDL]-cholesterol is made using an automated method taking advantage of the selective micellary solubilization of [LDL]-cholesterol by a nonionic detergent and the interaction of a sugar compound and lipoproteins (VLDL and chylomicrons).
When a detergent is included in the enzymatic method for cholesterol determination (cholesterol esterase, cholesterol oxidase coupling reaction), the relative reactivities of cholesterol in the lipoprotein fractions increase in this order: [HDL]<chylomicrons <VLDL <[LDL]. In the presence of Mg^2+, a sugar compound markedly reduces the enzymatic reaction of the cholesterol measurement in VLDL and chylomicrons. The combination of a sugar compound with detergent enables the selective determination of [LDL]-cholesterol in serum. (Friedewald et al., 1972; Rifai et al., 1992)
Homogeneous enzymatic colorimetric assay.
In the presence of peroxidase, the hydrogen peroxide generated reacts with 4-aminoantipyrine and Sodium N-(2-hydroxy-3-sulfopropyl)-3,5-dimethoxyaniline (HSDA) to form a purple-blue dye.
The color intensity of this dye is directly proportional to the cholesterol concentration and is measured photometrically.
Human serum and plasma samples [LDL] determination was done on a Roche/Hitachi Cobas c 701/702 system which automatically calculate the analyte concentration of each sample. Samples containing precipitates are centrifuged before performing the assay.

[1] = Study 2 12 weeks results, 50 mg q.d., week 12
[2] = Study 2 12 weeks results, 100 mg q.d., week 1
[3] = Study 2 12 weeks results, 100 mg q.d., week 2
[4] = Study 2 12 weeks results, 100 mg q.d., week 4
[5] = Study 2 12 weeks results, 100 mg q.d., week 8
[6] = Study 2 12 weeks results, 100 mg q.d., week 12
[7] = Study 2 12 weeks results, 200 mg q.d., week 1
[8] = Study 2 12 weeks results, 200 mg q.d., week 2
[9] = Study 2 12 weeks results, 200 mg q.d., week 4
[10] = Study 2 12 weeks results, 200 mg q.d., week 8
[11] = Study 2 12 weeks results, 200 mg q.d., week 12
[12] = Study 2 24 weeks results, 50 mg q.d. non responders switching to 100 mg q.d. at week 12, week 1
[13] = Study 2 24 weeks results, 50 mg q.d. non responders switching to 100 mg q.d. at week 12, week 2
[14] = Study 2 24 weeks results, 50 mg q.d. non responders switching to 100 mg q.d. at week 12, week 4
[15] = Study 2 24 weeks results, 50 mg q.d. non responders switching to 100 mg q.d. at week 12, week 8
[16] = Study 2 24 weeks results, 50 mg q.d. non responders switching to 100 mg q.d. at week 12, week 12
[17] = Study 2 24 weeks results, 50 mg q.d. non responders switching to 100 mg q.d. at week 12, week 16
[18] = Study 2 24 weeks results, 50 mg q.d. non responders switching to 100 mg q.d. at week 12, week 20
[19] = Study 2 24 weeks results, 50 mg q.d. non responders switching to 100 mg q.d. at week 12, week 24
[20] = Study 2 24 weeks results, 50 mg q.d. responders, week 1
[21] = Study 2 24 weeks results, 50 mg q.d. responders, week 2
[22] = Study 2 24 weeks results, 50 mg q.d. responders, week 4
[23] = Study 2 24 weeks results, 50 mg q.d. responders, week 8
[24] = Study 2 24 weeks results, 50 mg q.d. responders, week 12
[25] = Study 2 24 weeks results, 50 mg q.d. responders, week 16
[26] = Study 2 24 weeks results, 50 mg q.d. responders, week 20
[27] = Study 2 24 weeks results, 50 mg q.d. responders, week 24
[28] = Study 2 24 weeks results, 100 mg q.d., week 1
[29] = Study 2 24 weeks results, 100 mg q.d., week 2
[30] = Study 2 24 weeks results, 100 mg q.d., week 4
[31] = Study 2 24 weeks results, 100 mg q.d., week 8
[32] = Study 2 24 weeks results, 100 mg q.d., week 12
[33] = Study 2 24 weeks results, 100 mg q.d., week 16
[34] = Study 2 24 weeks results, 100 mg q.d., week 20
[35] = Study 2 24 weeks results, 100 mg q.d., week 24
[36] = Study 2 24 weeks results, 200 mg q.d., week 1
[37] = Study 2 24 weeks results, 200 mg q.d., week 2
[38] = Study 2 24 weeks results, 200 mg q.d., week 4
[39] = Study 2 24 weeks results, 200 mg q.d., week 8
[40] = Study 2 24 weeks results, 200 mg q.d., week 12
[41] = Study 2 24 weeks results, 200 mg q.d., week 16
[42] = Study 2 24 weeks results, 200 mg q.d., week 20
[43] = Study 2 24 weeks results, 200 mg q.d., week 24
[44] = Study 2 24 weeks results, placebo switching to 100 mg q.d. at week 12, week 16
[45] = Study 2 24 weeks results, placebo switching to 100 mg q.d. at week 12, week 20
[46] = Study 2 24 weeks results, placebo switching to 100 mg q.d. at week 12, week 24
[47] = placebo switching to 100 mg q.d. at week 12, week 20
[48] = placebo switching to 100 mg q.d. at week 12, week 24

Structure (SMILES): O=C(Nc1nc2cccc(-c3ccc(CN4CCS(=O)(=O)CC4)cc3)n2n1)C1CC1 [Compound 1, cyclopropanecarboxylic acid {5-[4-(1,1-dioxo-thiomorpholin-4-ylmethyl)-phenyl]-[1,2,4]triazolo[1,5-a]pyridin-2yl}-amide]
- [LDL] Mean CFB [1]: 0.090 mmol/L
- [LDL] Median CFB [1]: 0.040 mmol/L
- [LDL] Mean CFB [2]: 0.116 mmol/L
- [LDL] Median CFB [2]: 0.070 mmol/L
- [LDL] Mean CFB [3]: 0.105 mmol/L
- [LDL] Median CFB [3]: -0.050 mmol/L
- [LDL] Mean CFB [4]: 0.195 mmol/L
- [LDL] Median CFB [4]: 0.140 mmol/L
- [LDL] Mean CFB [5]: 0.162 mmol/L
- [LDL] Median CFB [5]: 0.140 mmol/L
- [LDL] Mean CFB [6]: 0.278 mmol/L
- [LDL] Median CFB [6]: 0.180 mmol/L
- [LDL] Mean CFB [7]: 0.209 mmol/L
- [LDL] Median CFB [7]: 0.180 mmol/L
- [LDL] Mean CFB [8]: 0.192 mmol/L
- [LDL] Median CFB [8]: 0.130 mmol/L
- [LDL] Mean CFB [9]: 0.216 mmol/L
- [LDL] Median CFB [9]: 0.290 mmol/L
- [LDL] Mean CFB [10]: 0.212 mmol/L
- [LDL] Median CFB [10]: 0.230 mmol/L
- [LDL] Mean CFB [11]: 0.347 mmol/L
- [LDL] Median CFB [11]: 0.315 mmol/L
- [LDL] Mean CFB [12]: 0.08 mmol/L
- [LDL] Median CFB [12]: 0.07 mmol/L
- [LDL] Mean CFB [13]: 0.00 mmol/L
- [LDL] Median CFB [13]: -0.02 mmol/L
- [LDL] Mean CFB [14]: 0.17 mmol/L
- [LDL] Median CFB [14]: 0.05 mmol/L
- [LDL] Mean CFB [15]: 0.10 mmol/L
- [LDL] Median CFB [15]: 0.10 mmol/L
- [LDL] Mean CFB [16]: 0.11 mmol/L
- [LDL] Median CFB [16]: 0.09 mmol/L
- [LDL] Mean CFB [17]: 0.22 mmol/L
- [LDL] Median CFB [17]: 0.20 mmol/L
- [LDL] Mean CFB [18]: 0.03 mmol/L
- [LDL] Median CFB [18]: -0.04 mmol/L
- [LDL] Mean CFB [19]: 0.14 mmol/L
- [LDL] Median CFB [19]: 0.15 mmol/L
- [LDL] Mean CFB [20]: -0.01 mmol/L
- [LDL] Median CFB [20]: -0.01 mmol/L
- [LDL] Mean CFB [21]: -0.07 mmol/L
- [LDL] Median CFB [21]: -0.06 mmol/L
- [LDL] Mean CFB [22]: 0.01 mmol/L
- [LDL] Median CFB [22]: -0.05 mmol/L
- [LDL] Mean CFB [23]: 0.16 mmol/L
- [LDL] Median CFB [23]: 0.14 mmol/L
- [LDL] Mean CFB [24]: 0.09 mmol/L
- [LDL] Median CFB [24]: 0.03 mmol/L
- [LDL] Mean CFB [25]: 0.18 mmol/L
- [LDL] Median CFB [25]: 0.16 mmol/L
- [LDL] Mean CFB [26]: 0.00 mmol/L
- [LDL] Median CFB [26]: 0.12 mmol/L
- [LDL] Mean CFB [27]: 0.00 mmol/L
- [LDL] Median CFB [27]: -0.01 mmol/L
- [LDL] Mean CFB [28]: 0.12 mmol/L
- [LDL] Median CFB [28]: 0.07 mmol/L
- [LDL] Mean CFB [29]: 0.10 mmol/L
- [LDL] Median CFB [29]: -0.05 mmol/L
- [LDL] Mean CFB [30]: 0.19 mmol/L
- [LDL] Median CFB [30]: 0.14 mmol/L
- [LDL] Mean CFB [31]: 0.16 mmol/L
- [LDL] Median CFB [31]: 0.14 mmol/L
- [LDL] Mean CFB [32]: 0.28 mmol/L
- [LDL] Median CFB [32]: 0.18 mmol/L
- [LDL] Mean CFB [33]: 0.28 mmol/L
- [LDL] Median CFB [33]: 0.20 mmol/L
- [LDL] Mean CFB [34]: 0.25 mmol/L
- [LDL] Median CFB [34]: 0.23 mmol/L
- [LDL] Mean CFB [35]: 0.31 mmol/L
- [LDL] Median CFB [35]: 0.31 mmol/L
- [LDL] Mean CFB [36]: 0.21 mmol/L
- [LDL] Median CFB [36]: 0.18 mmol/L
- [LDL] Mean CFB [37]: 0.19 mmol/L
- [LDL] Median CFB [37]: 0.13 mmol/L
- [LDL] Mean CFB [38]: 0.22 mmol/L
- [LDL] Median CFB [38]: 0.29 mmol/L
- [LDL] Mean CFB [39]: 0.21 mmol/L
- [LDL] Median CFB [39]: 0.23 mmol/L
- [LDL] Mean CFB [40]: 0.35 mmol/L
- [LDL] Median CFB [40]: 0.32 mmol/L
- [LDL] Mean CFB [41]: 0.30 mmol/L
- [LDL] Median CFB [41]: 0.23 mmol/L
- [LDL] Mean CFB [42]: 0.29 mmol/L
- [LDL] Median CFB [42]: 0.25 mmol/L
- [LDL] Mean CFB [43]: 0.38 mmol/L
- [LDL] Median CFB [43]: 0.34 mmol/L
- [LDL] Mean CFB [44]: 0.07 mmol/L
- [LDL] Median CFB [44]: -0.05 mmol/L
- [LDL] Mean CFB [45]: 0.16 mmol/L
- [LDL] Median CFB [45]: 0.03 mmol/L
- [LDL] Mean CFB [46]: 0.10 mmol/L
- [LDL] Median CFB [46]: 0.12 mmol/L
- [LDL] Mean percentage CFB - 24 weeks results (placebo switching to 100 mg q.d. at week 12, week 16): 2.82%
- [LDL] Mean percentage CFB - 24 weeks results [47]: 5.77%
- [LDL] Median percentage CFB - 24 weeks results [47]: 1.00%
- [LDL] Mean percentage CFB - 24 weeks results [48]: 4.50%
- [LDL] Median percentage CFB - 24 weeks results [48]: 4.13%
